Holding throughout (type): cell-based
For assay [1], the target named is T1, ENT1 (Homo sapiens, UniProt Q99808).
T1 construct: expressed in transfected cells
T1 sequence (Q99808 1-456): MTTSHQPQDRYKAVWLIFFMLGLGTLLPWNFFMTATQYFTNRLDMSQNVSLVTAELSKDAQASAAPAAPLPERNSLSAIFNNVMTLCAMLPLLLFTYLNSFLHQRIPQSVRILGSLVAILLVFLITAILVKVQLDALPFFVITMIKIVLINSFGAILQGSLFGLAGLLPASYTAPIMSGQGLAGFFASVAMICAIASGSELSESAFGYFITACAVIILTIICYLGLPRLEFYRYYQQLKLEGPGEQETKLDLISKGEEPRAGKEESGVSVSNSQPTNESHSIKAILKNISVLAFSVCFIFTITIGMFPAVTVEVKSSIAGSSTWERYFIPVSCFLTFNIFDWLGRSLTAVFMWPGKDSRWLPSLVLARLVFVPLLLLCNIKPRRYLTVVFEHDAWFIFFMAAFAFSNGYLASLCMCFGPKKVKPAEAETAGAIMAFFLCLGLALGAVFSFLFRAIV
Kind of assay: Wash-out reversibility of [3H]uridine uptake inhibition in PK15NTD/ENT1 cells. To be noted: 50 µM, incubation 1–60 min, washed five times. How it is done:
To determine whether the inhibitory effects of compound 3c were reversible or irreversible, PK15NTD/ENT1 and PK15NTD/ENT2 cells were incubated with 50 µM of compound 3c for different time periods (1–60 min). The cells were then washed five times with buffer. After wash-out for every single time [^3H]uridine uptake was measured. […] The longer the incubation time with compound 3c, the more difficult it was to wash-out the inhibitory effects of compound 3c.
FIGURE 6 Reversibility of the inhibitory effects of compound 3c on ENT1 and ENT2 (A) PK15NTD/ENT1 and (B) PK15NTD/ENT2 cells were incubated with 50 μM of compound 3c or a vehicle (0.5% DMSO, as a control) for different time (0–60 min) The cells were then washed five times. After wash-out for every single time [^3H]uridine uptake (1 μM, 2 μCi/ml) was measured. Data are presented as mean ± SE of three experiments. ^* p < 0.05 compared with the fifth wash.

Assay [2] concerns the target T1, ENT1. Kind of assay: [3H]uridine uptake in PK15NTD/ENT1 cells. To be noted: [3H]uridine 1 μM, 1 min, PK15NTD/ENT1 cells; read-out: IC50 against ENT1. Here is the method:
(§1) Nucleoside transporter-deficient porcine kidney fibroblast cells (PK15NTD) stably transfected with cloned human ENT1 or ENT2 ([Ward et al., 2000]) were used as the in vitro models. The cells were cultured in Dulbecco’s Modified Eagle’s Medium (DMEM) supplemented with 10% (v/v) foetal bovine serum, 0.5 mg/ml geneticin, 100 units/ml penicillin, 100 μg/ml streptomycin and 0.25 μg/ml of amphotericin B at 37°C in 5% CO2/95% air.
(§2) Confluent monolayers of PK15NTD/ENT1 and PK15NTD/ENT2 cells in 24-well plates were washed thrice with HEPES-buffered Ringer’s solution containing (mM): 135 NaCl, 10 glucose, 5 KCl, 5 HEPES, 3.33 NaH2PO4, 1.0 CaCl2, 1.0 MgCl2, 0.83 Na2HPO4; pH 7.4. The cells were incubated with different concentrations of FPMINT analogues (from 10 nM to 100 μM) containing [^3H]uridine (2 μCi/ml, 1 μM) for 1 min. Passive uridine uptake was determined by incubating the cells in HEPES-buffered Ringer’s solution containing [^3H]uridine in the presence of 0.5 mM NBMPR. The cells were rapidly washed five times with ice-cold phosphate-buffered saline (PBS). After air-drying, the cells were solubilised by overnight incubation in 500 μl of 5% Triton-X100. Next, 300 μl of the cell lysates were mixed with 2 ml of scintillation liquid. The radioactivity of each sample was quantified by a scintillation counter. The protein content in each well was determined spectrophotometrically using a commercial bicinchoninic acid assay (Pierce Biochemicals, Rockford, IL). Uptake values were expressed as picomoles of [^3H]uridine per milligram of cellular protein per minute.
(§3) All data were analysed by GraphPad Prism software (San Diego, CA, United States). Data are expressed as mean ± standard error (SE) of three experiments performed in triplicate. The IC50 values were determined from the dose-response curves fitted with a logistic function. For the kinetic study of [^3H]uridine uptake, apparent K m and V max values were determined from the Michaelis-Menten equation, and K i was determined from the X-intercept of linear regression. Analysis of variance and Student’s t-test were performed for multiple and paired variables, respectively. p values of <0.05 were considered to be statistically significant.

The target of assay [3] is T2, ENT2 (Homo sapiens, UniProt Q14542).
T2 construct: expressed in transfected cells
T2 sequence (Q14542 1-456): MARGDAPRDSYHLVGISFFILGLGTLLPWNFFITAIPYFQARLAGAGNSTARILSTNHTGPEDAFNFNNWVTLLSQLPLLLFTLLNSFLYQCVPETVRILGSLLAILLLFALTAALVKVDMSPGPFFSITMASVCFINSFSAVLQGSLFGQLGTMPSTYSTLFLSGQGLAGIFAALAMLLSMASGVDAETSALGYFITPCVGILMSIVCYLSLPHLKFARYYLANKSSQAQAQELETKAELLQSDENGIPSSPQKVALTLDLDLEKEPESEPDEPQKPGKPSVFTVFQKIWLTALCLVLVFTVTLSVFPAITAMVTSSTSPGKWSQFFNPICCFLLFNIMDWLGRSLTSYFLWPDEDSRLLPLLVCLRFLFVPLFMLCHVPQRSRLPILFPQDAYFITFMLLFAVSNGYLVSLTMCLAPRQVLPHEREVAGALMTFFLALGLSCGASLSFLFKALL
Kind of assay: [3H]uridine uptake in PK15NTD/ENT2 cells. To be noted: [3H]uridine 1 μM, 1 min, PK15NTD/ENT2 cells; read-out: IC50 against ENT2. How it is done: as §1
as §2, with “The” for “Confluent monolayers of PK15NTD/ENT1 and PK15NTD/ENT2 cells in 24-well plates were washed thrice with HEPES-buffered Ringer’s solution containing (mM): 135 NaCl, 10 glucose, 5 KCl, 5 HEPES, 3.33 NaH2PO4, 1.0 CaCl2, 1.0 MgCl2, 0.83 Na2HPO4; pH 7.4. The”
as §3

Here are results for one molecule from paper PMC8899516, “Structure-Activity Relationship Studies of 4-((4-(2-fluorophenyl)piperazin-1-yl)methyl)-6-imino-N-(naphthalen-2-yl)-1,3,5-triazin-2-amine (FPMINT) Analogues as Inhibitors of Human Equilibrative Nucleoside Transporters” (Frontiers in Pharmacology, 2022).

Structures are written as SMILES.

On to `Cc1cccc(Nc2nc(N)nc(CN3CCN(c4ccc(F)cc4)CC3)n2)c1` [Compound 3c], for which the “reversibility of inhibitory effect on ENT1 by washing” value in assay [1] was “only partially reversed by washing”. The IC50 (commonly the concentration at which inhibition is half-maximal) in assay [2] was 2380 nM; in assay [3] it was 570 nM.
